We go through 2 compounds from patent publication US9562031B1, “Phenethyldihydrobenzodioxolones and methods of use” (Sequoia Sciences, Inc., priority 2015, dated 2017).

Some results are limits rather than exact numbers.

One series has as its system OVCAR-4 cells. The experiment in a line: antiproliferation assay, OVCAR-4. The class given is cell-based. Conditions: Homo sapiens. As to the method: (§1) For the antiproliferation assay, NCI-H460 (large cell lung carcinoma) or M14 (amelanotic melanoma) cells were grown in RPMI-1640 with 10% FBS supplemented with L-glutamine and HEPES. Cells were seeded into 96-well plates at 5×10^2 to 5×10^4 cells/well and allowed to adhere overnight; the medium was then removed. A stock solution of test compound in DMSO was diluted in medium to generate a series of working solutions. Aliquots (100 μl) of the working solutions were then added to the appropriate test wells to expose cells to the final concentrations of compound in a total volume of 100 μl. Seven different concentrations were tested, with 2-5 wells per concentration. Camptothecin was used as a positive control; wells containing vehicle without compound were used as negative controls. Plates were kept for 72 h in a 37° C., 5% CO2 incubator. After incubation, viable cells were detected with the CELLTITER 96 AQueous Non-Radioactive Cell Proliferation Assay (Promega), and IC50 values were determined using GraphPad Prism 5 software.
Antiproliferation of several of the active compounds was tested against additional cell lines.

Series [1] relates to HCT-15 cells. The experiment in a line: antiproliferation assay, paclitaxel-resistant HCT-15. Type of series: cell-based. The settings on record: Homo sapiens. The procedure: as §1
(§2) Compound 4 was tested for antiproliferation activity against several paclitaxel-resistant human cancer cell lines.

The next series deals with EKVX cells. Briefly: antiproliferation assay, paclitaxel-resistant EKVX. Type of series: cell-based. The settings on record: Homo sapiens. The procedure:
as §1, §2

A further series relates to ACHN cells. Briefly: antiproliferation assay, paclitaxel-resistant ACHN. Type of series: cell-based. The settings on record: Homo sapiens. As to the method:
as §1, §2

A further series concerns TK-10 cells. Briefly: antiproliferation assay, paclitaxel-resistant TK-10. Type of series: cell-based. The settings on record: Homo sapiens. As to the method: as §1, §2
Series [2] deals with LOX-IMVI (melanoma) xenograft tumors. Briefly: tumor growth inhibition, LOX-IMVI murine xenograft model. Type of series: in vivo, mice. The procedure: Tumor growth inhibition of compound 4 was measured in several murine xenograft models, and the results of individual experiments are listed in Table 14. Tumors were initiated by subcutaneous injection of either tumor cells from cell culture or tumor fragments from continuous in vivo passage. When tumors reached volumes between approximately 100 and 200 mm^3, the mice were divided into vehicle and treatment groups. Compound or vehicle was administered by IP injection in a volume of 5-10 mL/kg.
Changes in tumor weight (delta weights) for each treated (T) and control (C) group are calculated for each day tumors are measured by subtracting the median tumor weight on the first day of treatment (staging day) from the median tumor weight on the specified observation day. These values are used to calculate a percent T/C as follows: % T/C=(delta T/delta C)×100. The optimal T/C is the minimal value obtained after the first treatment.

The next series relates to A549 cells. The experiment in a line: NCI-60 panel antiproliferation, A549. Type of series: cell-based, human. The settings on record: Homo sapiens, NCI 60-cell panel. As to the method:
(§3) Bifidenone and Compound 37 were tested for antiproliferation activity against the NCI-60 panel of cancer cell lines. COMPARE analysis was then conducted to compare the activity “fingerprint” of bifidenone to those of known classes of compounds (Zhou, B.-N., Hoch, J. M., Johnson, R. K., Mattern, M. R., Eng, W.-K., Ma, J., Hecht, S. M., Newman, D. J., Kingston, D. G. I., 2000. Use of COMPARE Analysis to Discover New Natural Product Drugs: Isolation of Camptothecin and 9-Methoxycamptothecin from a New Source. Journal of Natural Products 63, 1273-1276.).

For the next series, the system named is Caki-1 cells. Briefly: NCI-60 panel antiproliferation, Caki-1. The settings on record: Homo sapiens, NCI 60-cell panel. Type of series: cell-based, human. As to the method:
as §3

Another series relates to COLO205 cells. Briefly: NCI-60 panel antiproliferation, COLO205. The class given is cell-based, human. Conditions: Homo sapiens, COLO 205, NCI 60-cell panel. As to the method:
as §3

In the next series the test system is DU-145 cells. Briefly: NCI-60 panel antiproliferation, DU-145. Type of series: cell-based, human. The settings on record: Homo sapiens, NCI 60-cell panel. The procedure:
as §3

The subject of a further series is HCC-2998 cells. Briefly: NCI-60 panel antiproliferation, HCC-2998. The settings on record: Homo sapiens, NCI 60-cell panel. The class given is cell-based, human. As to the method:
as §3

Series [3] deals with HCT-15 cells. Briefly: NCI-60 panel antiproliferation, HCT-15. Type of series: cell-based, human. The settings on record: Homo sapiens, NCI 60-cell panel. As to the method:
as §3

For a further series, the system named is HCT-116 cells. The experiment in a line: NCI-60 panel antiproliferation, HCT-116. The class given is cell-based, human. The settings on record: Homo sapiens, NCI 60-cell panel. As to the method: as §3
Another series deals with MALME-3M cells. Briefly: NCI-60 panel antiproliferation, MALME-3M. The class given is cell-based, human. Conditions: Homo sapiens, NCI 60-cell panel. As to the method:
as §3

A further series concerns MDA-MB-435 cells. Briefly: NCI-60 panel antiproliferation, MDA-MB-435. Conditions: Homo sapiens, NCI 60-cell panel. Type of series: cell-based, human. The procedure: as §3
The next series concerns MOLT-4 cells. The experiment in a line: NCI-60 panel antiproliferation, MOLT-4. The class given is cell-based, human. Conditions: Homo sapiens, NCI 60-cell panel. As to the method: as §3
The test system of the next series is NCI-ADR/RES cells. The experiment in a line: NCI-60 panel antiproliferation, NCI-ADR/RES. The class given is cell-based, human. The settings on record: Homo sapiens, NCI 60-cell panel. As to the method: as §3
The test system of a further series is NCI-H23 cells. Briefly: NCI-60 panel antiproliferation, NCI-H23. Type of series: cell-based, human. Conditions: Homo sapiens, NCI 60-cell panel. As to the method:
as §3

The test system of a further series is NCI-H226 cells. Briefly: NCI-60 panel antiproliferation, NCI-H226. The settings on record: Homo sapiens, NCI 60-cell panel. Type of series: cell-based, human. As to the method:
as §3

The next series concerns NCI-H322M cells. The experiment in a line: NCI-60 panel antiproliferation, NCI-H322M. The class given is cell-based, human. The settings on record: Homo sapiens, NCI 60-cell panel. As to the method: as §3
For another series, the system named is NCI-H460 cells. The experiment in a line: NCI-60 panel antiproliferation, NCI-H460. Conditions: Homo sapiens, NCI 60-cell panel. Type of series: cell-based, human. The procedure: as §3
In a further series the test system is NCI-H522 cells. Briefly: NCI-60 panel antiproliferation, NCI-H522. The class given is cell-based, human. Conditions: Homo sapiens, NCI 60-cell panel. As to the method: as §3
The test system of a further series is OVCAR-3 cells. The experiment in a line: NCI-60 panel antiproliferation, OVCAR-3. Type of series: cell-based, human. The settings on record: Homo sapiens, NCI 60-cell panel. The procedure: as §3
For the next series, the system named is RPMI-8226 cells. The experiment in a line: NCI-60 panel antiproliferation, RPMI-8226. Type of series: cell-based, human. Conditions: Homo sapiens, NCI 60-cell panel. As to the method:
as §3

A further series concerns SK-Mel-5 cells. The experiment in a line: NCI-60 panel antiproliferation, SK-MEL-5. The class given is cell-based, human. Conditions: Homo sapiens, NCI 60-cell panel. The procedure:
as §3

Another series has as its system SK-MEL-28 cells. The experiment in a line: NCI-60 panel antiproliferation, SK-MEL-28. Type of series: cell-based, human. Conditions: Homo sapiens, NCI 60-cell panel. The procedure: as §3
A further series concerns SK-OV-3 cells. Briefly: NCI-60 panel antiproliferation, SK-OV-3. The class given is cell-based, human. The settings on record: Homo sapiens, NCI 60-cell panel. The procedure:
as §3

The subject of the next series is SN12C cells. The experiment in a line: NCI-60 panel antiproliferation, SN12C. Conditions: Homo sapiens, NCI 60-cell panel. Type of series: cell-based, human. As to the method:
as §3

In another series the test system is SNB-19 cells. The experiment in a line: NCI-60 panel antiproliferation, SNB-19. Conditions: Homo sapiens, NCI 60-cell panel. Type of series: cell-based, human. The procedure:
as §3

In a further series the test system is SNB-75 cells. The experiment in a line: NCI-60 panel antiproliferation, SNB-75. Type of series: cell-based, human. Conditions: Homo sapiens, NCI 60-cell panel. As to the method: as §3
A further series has as its system SR cells. The experiment in a line: NCI-60 panel antiproliferation, SR. The class given is cell-based, human. Conditions: Homo sapiens, NCI 60-cell panel. As to the method:
as §3

A further series deals with 786-0 cells. The experiment in a line: NCI-60 panel antiproliferation, 786-0. The class given is cell-based, human. Conditions: Homo sapiens, NCI 60-cell panel. As to the method:
as §3

The mark [4] stands for this setting: IP 30 mg/kg, days 0,1,2,3,4,5,6.

A word on the IC50: it is the point on the concentration scale where inhibition reaches its midpoint.

Turning to `C=CC[C@H]1C[C@]2([C@H](C)Cc3cc(O)c(OC)cc3F)OCOC2=CC1=O` (relative stereo) [Compound 4, 6-allyl-7a-(1-(2-fluoro-5-hydroxy-4-methoxyphenyl)propan-2-yl)-7,7a-dihydrobenzo[d][1,3]dioxol-5(6H)-one], the 50% inhibitory concentration (IC50) in the series with OVCAR-4 cells was 6.4 nM; in the series with HCT-15 cells [1] it was < 5 nM; with EKVX cells, 7 nM; in the series on ACHN cells it was 15 nM; with TK-10 cells, 7 nM. The “Maximum Mean Body Weight Loss” value stood at 7% in series [2] (IP 30 mg/kg, days 0,1,2,3,4,5); 6% in series [2] (setting [4]); 9% in series [2] (IP 40 mg/kg, days 0,1,2,5,6,7). The “Optimal T/C” value stood at 31% in series [2] (IP 30 mg/kg, days 0,1,2,3,4,5); 36% in series [2] (setting [4]); 39% in series [2] (IP 40 mg/kg, days 0,1,2,5,6,7).
On to `C=CC[C@H]1C[C@]2([C@@H](C)Cc3ccc(OC)c(F)c3)OCOC2=CC1=O` [Compound 37, (6S,7aR)-6-allyl-7a-((S)-1-(3-fluoro-4-methoxyphenyl)propan-2-yl)-7,7a-dihydrobenzo[d][1,3]dioxol-5(6H)-one], for which the IC50 came to 55 nM in the series on A549 cells; 97 nM in the series with Caki-1 cells; 67 nM with COLO205 cells; 187 nM with DU-145 cells; 129 nM with HCC-2998 cells; 56 nM in the series on HCT-15 cells [3]. The half-maximal inhibitory concentration (IC50) came out at 115 nM with HCT-116 cells; 39 nM in the series with MALME-3M cells; 28 nM with MDA-MB-435 cells; 97 nM in the series on MOLT-4 cells; 47 nM in the series on NCI-ADR/RES cells; 123 nM in the series on NCI-H23 cells. In addition, the IC50 is 141 nM with NCI-H226 cells; 125 nM with NCI-H322M cells; 49 nM in the series on NCI-H460 cells; 61 nM with NCI-H522 cells; 40 nM in the series on OVCAR-3 cells; 74 nM in the series with RPMI-8226 cells. The IC50 with SK-Mel-5 cells was 60 nM; in the series with SK-MEL-28 cells, 37 nM; in the series with SK-OV-3 cells, 39 nM; in the series on SN12C cells it was 350 nM; with SNB-19 cells it was 73 nM; in the series on SNB-75 cells, 49 nM. Moreover, the results for the IC50 in the series with SR cells and with 786-0 cells were 14 nM and 120 nM, respectively.
